{"source": "patent US11241475B2", "about": "“Preventive and/or therapeutic agent for osteogenesis imperfecta and other diseases” (Pharma Foods International Co., Ltd., priority 2016, dated 2022)", "key": {"[1]": {"test_system": "insulin-like growth factor (IGF-1)", "experiment": "IGF-1 production: peptide No. 2 versus reverse sequence and constituent amino acids (Example 9)", "assay_type": "in vivo", "settings": "rats, single oral dose 10 mg/kg, 45 minutes, groups No. 2, R-No. 2, AA, control", "procedure": "The synthetic peptide No. 2, a peptide consisting of a reverse sequence of the peptide No. 2 (SEQ ID NO: 3; herein also called R-No. 2), constituent amino acids of the synthetic peptide No. 2 (herein also called AA), or water for injection (control) was orally administered as a single dose to male Wistar rats at the age of four weeks by using a gastric tube (n=6 in each group). The dosage of the synthetic peptide, the reverse sequence peptide and the constituent amino acids was 10 mg/kg. At 45 minutes after administration, the rats were euthanized under anesthesia, and the liver was harvested. The concentration of IGF-1 in the serum and liver was measured by ELISA (Mouse/Rat IGF-I Quantikine ELISA Kit (MG100), R&D Systems, Inc.). For the serum IGF-1 concentration, the difference (Δ value) before and after administration was also determined."}, "[2]": {"test_system": "mouse osteoblast-like cell line MC3T3-E1 Subclone-4", "experiment": "Proliferation-promoting activity on osteoblastic precursor cells (BrdU uptake)", "assay_type": "cell-based", "procedure": "The mouse osteoblast-like cell line MC3T3-E1 Subclone-4 (ATCC No. CRL-2593) was cultured in α-MEM medium supplemented with 10% FBS at 37° C. in 5% CO2-95% air to subconfluence. The cells were collected by trypsinization. The collected cells were suspended at 5×10^4 cells/mL in fresh α-MEM medium with the same supplement. One hundred microliters of the cell suspension was seeded in each well of a 96-well plate, and precultured at 37° C. in 5% CO2-95% air. On the next day, the medium was replaced with α-MEM medium containing the sample dissolved therein with a supplement of 0.1% FBS. The cells were further cultured for 24 hours. The proliferative activity of the osteoblastic precursor cells was assessed by measuring the amount of BrdU uptake. The proliferation-promoting activity of the sample on the osteoblastic precursor cells was expressed as a value relative to the proliferation level of the cells in the absence of the sample, which was taken as 100."}, "[3]": {"test_system": "mouse chondrogenic cell line ATDC5", "experiment": "Proliferation-promoting activity on chondrogenic cells (BrdU uptake)", "assay_type": "cell-based", "settings": "ATDC5, 24 hours, relative to absence of sample = 100, FIGS. 5 and 6", "procedure": "The mouse chondrogenic cell line ATDC5 (RCB0565) was cultured in DMEM/F-12 medium supplemented with 5% FBS, 3×10-8 M sodium selenite and 5 μg/mL human transferrin at 37° C. in 5% CO2-95% air to subconfluence. The cells were collected by trypsinization. The collected cells were suspended at 5×10^4 cells/mL in fresh DMEM/F-12 medium with the same supplements. One hundred microliters of the cell suspension was seeded in each well of a 96-well plate, and precultured at 37° C. in 5% CO2-95% air. On the next day, the medium was replaced with DMEM/F-12 medium containing the sample dissolved therein with a supplement of 3×10^−8 M sodium selenite and 5 μg/mL human transferrin. The cells were further cultured for 24 hours. The proliferative activity of the chondrogenic cells was assessed by measuring the amount of BrdU uptake. The proliferation-promoting activity of the sample on the chondrogenic cells was expressed as a value relative to the proliferation level of the cells in the absence of the sample, which was taken as 100."}, "[4]": {"test_system": "insulin-like growth factor (IGF-1)", "experiment": "Promoting effect on IGF-1 production after single oral dose (Example 8)", "assay_type": "in vivo", "settings": "rats", "procedure": "The synthetic peptide No. 1 or No. 2 or water for injection (control) was orally administered as a single dose to male Wistar rats at the age of four weeks by using a gastric tube (n=6 in each group). The dosage of the synthetic peptide No. 1 or No. 2 was 10 mg/kg. The blood was collected from the tail before administration and 30, 45, 60 and 90 minutes after administration, and the serum was separated. At 120 minutes after administration, the whole blood was collected from the abdominal vena cava under anesthesia and the rats were euthanized (see FIG. 25). The concentration of IGF-1 in the serum was measured by ELISA (Mouse/Rat IGF-I Quantikine ELISA Kit (MG100), R&D Systems, Inc.).\n(§1) The concentration dependence of the synthetic peptides was examined. The synthetic peptide No. 1 was orally administered as a single dose of 1, 5 or 10 mg/kg (n=6 in each group). At 60 minutes after administration, the rats were euthanized under anesthesia, and the liver was harvested. The concentration of IGF-1 in the serum and liver was measured. For the serum IGF-1 concentration, the difference (Δ value) before and after administration was also determined.\nas §1, with “The” for “The concentration dependence of the synthetic peptides was examined. The”, “No. 2” for “No. 1”, “administered to the rats” for “administered”, “of 0.1, 1” for “of 1, 5”, “At 45” for “At 60”"}, "[5]": {"test_system": "male Crlj:WI rats", "experiment": "Calcification rate and morphometry in secondary cancellous bone, seven days (Example 6)", "assay_type": "in vivo", "settings": "peptide 1, 10 or 100 mg/kg/day oral, hGH 500 μg/kg/day subcutaneous, versus control group, FIG. 18", "procedure": "(§2) The synthetic peptide No. 1 or water for injection (control) was administered to male Crlj:WI rats at the age of four weeks by oral gavage using a gastric tube once a day for seven days (n=10 in each group). The dosage of the synthetic peptide was 1, 10 or 100 mg/kg/day. As a positive control, human growth hormone (hGH) (Norditropin, Japan Standard Commodity Classification Number: 872412) was subcutaneously administered at 500 μg/kg/day once a day for seven days. As fluorescent labels for the bone formation site, tetracycline (20 mg/kg) was subcutaneously administered on day 4 after the administration of the peptide or controls, and then calcein (10 mg/kg) was subcutaneously administered on day 6 after the administration of the peptide or controls. After the administration of the sample on day 7, the rats were kept under fasting conditions. […] Undecalcified specimens of the proximal tibia were prepared and photographed under a fluorescent microscope (BX-53, Olympus Corporation), and the bone morphology was measured using a morphometry system (Histometry RT digitizer, System Supply Co., Ltd.). The daily calcification rate (mineral apposition rate) was determined by measuring the distance between the tetracycline and calcein labels in the secondary cancellous bones and dividing the distance by the time interval between the administrations of the two fluorescent labels (two days)."}, "[6]": {"test_system": "male Crlj:WI rats", "experiment": "Bone growth-promoting effect on rats in the growth phase, seven days (Example 3)", "assay_type": "in vivo", "settings": "hGH 500 μg/kg/day subcutaneous, versus control group", "procedure": "as §2, with “longitudinal growth” for “daily calcification”, “(Lo.G.R.) of the growth plate per day” for “(mineral apposition rate)”, “labels” for “labels in the secondary cancellous bones”"}, "[7]": {"experiment": "Effect on body weight (Example 7)", "assay_type": "in vivo", "settings": "rats, days 1, 3, 5 and 7; peptide 1, 10 or 100 mg/kg/day oral, hGH 500 μg/kg/day subcutaneous; FIG. 24", "procedure": "The synthetic peptide No. 1 or water for injection (control) was administered to male Crlj:WI rats at the age of four weeks by oral gavage using a gastric tube once a day for seven days (n=10 in each group). The dosage of the synthetic peptide was 1, 10 or 100 mg/kg/day. As a positive control, human growth hormone (hGH) (Norditropin, Japan Standard Commodity Classification Number: 872412) was subcutaneously administered at 500 μg/kg/day once a day for seven days. The body weight was measured on days 1, 3, 5 and 7 of administration."}, "[8]": {"test_system": "male Crlj:WI rats", "experiment": "Osteogenesis-promoting effect on growth plate and secondary cancellous bone, 21 days (Example 5)", "assay_type": "in vivo", "settings": "peptide 100 mg/kg/day oral, hGH 500 μg/kg/day subcutaneous, versus control group, FIG. 14", "procedure": "The synthetic peptide No. 1 or water for injection (control) was administered to male Crlj:WI rats at the age of four weeks by oral gavage using a gastric tube once a day for 21 days. The dosage of the synthetic peptide was 100 mg/kg/day. As a positive control, human growth hormone (hGH) was subcutaneously administered at 500 μg/kg/day once a day for 21 days. As fluorescent labels for the bone formation site, tetracycline (20 mg/kg) was subcutaneously administered on day 18 after the administration of the peptide or controls, and then calcein (10 mg/kg) was subcutaneously administered on day 20 after the administration of the peptide or controls. After the administration of the sample on day 21, the rats were kept under fasting conditions. […] Undecalcified specimens of the proximal tibia were prepared and photographed under a fluorescent microscope (BX-53, Olympus Corporation), and the bone morphology was measured using a morphometry system (Histometry RT digitizer, System Supply Co., Ltd.) and an analysis software (CSS-840 cancellous bone morphometry version, System Supply Co., Ltd.). The longitudinal growth rate (Lo.G.R.) of the epiphyseal plate per day was determined by measuring the distance between the tetracycline and calcein labels and dividing the distance by the time interval between the administrations of the two fluorescent labels (two days)."}}, "data": [{"substance": "Val-Asn-Pro-Glu (VNPE) [synthetic peptide No. 2]", "values": [{"measurement": "concentration of IGF-1 in the serum", "setting": "[1]; FIG. 32", "result": "significantly higher"}, {"measurement": "concentration of IGF-1 in the liver", "setting": "[1]; FIG. 33", "result": "significantly higher"}, {"measurement": "proliferation-promoting activity on osteoblastic precursor cells", "setting": "[2]; MC3T3-E1, 24 hours, BrdU uptake, relative to absence of sample = 100, FIGS. 3 and 4", "result": "promoted the proliferation"}, {"measurement": "concentration at which the proliferation-promoting effect is exhibited", "setting": "[2]; MC3T3-E1, BrdU uptake", "result": "sufficiently exhibited its effect at a low concentration"}, {"measurement": "proliferation-promoting activity on osteoblastic precursor cells, comparison between the peptides", "setting": "[2]; MC3T3-E1, BrdU uptake, No. 2 versus No. 1", "result": "higher activity than the synthetic peptide No. 1"}, {"measurement": "proliferation-promoting activity on chondrogenic cells", "setting": "[3]", "result": "promoted the proliferation"}, {"measurement": "concentration of IGF-1 in the serum (time course)", "setting": "[4]; single oral dose 10 mg/kg, at 45 and 60 minutes after administration, versus control, FIG. 27", "result": "significantly higher"}, {"measurement": "dose dependence of IGF-1 concentration in the serum and liver", "setting": "[4]; single oral dose 0.1, 1 or 10 mg/kg, 45 minutes", "result": "increased in a dose-dependent manner"}, {"measurement": "concentration of IGF-1 in the serum", "setting": "[4]; single oral dose 0.1, 1 or 10 mg/kg, 45 minutes after administration, versus control group, FIG. 30", "result": "significantly higher"}, {"measurement": "concentration of IGF-1 in the liver", "setting": "[4]; single oral dose 0.1, 1 or 10 mg/kg, 45 minutes after administration, versus control group, FIG. 31", "result": "significantly higher"}]}, {"substance": "hGH: human growth hormone (hGH) (Norditropin), positive control, subcutaneously administered", "values": [{"measurement": "calcification rate (mineral apposition rate) in the secondary cancellous bone", "setting": "[5]", "result": "significant increase"}, {"measurement": "area of the hypertrophic cartilage layer", "setting": "[6]; peptide 10 mg/kg/day oral, FIG. 9", "result": "significantly larger"}, {"measurement": "longitudinal growth rate (Lo.G.R.) of the growth plate per day", "setting": "[6]; peptide 1, 10 or 100 mg/kg/day oral, FIG. 8", "result": "significant promotion of bone growth"}, {"measurement": "change in the body weight", "setting": "[7]", "result": "No significant change"}, {"measurement": "longitudinal growth rate (Lo.G.R.) of the epiphyseal plate per day", "setting": "[8]", "result": "significant promotion of bone growth"}]}]}
